According to ChEMBL document CHEMBL6071153, “Design, synthesis, and evaluation of antitumor activity in Pseudolaric acid B Azole derivatives: Novel and potent angiogenesis inhibitor via regulation of the PI3K/AKT and MAPK mediated HIF-1/VEGF signaling pathway” (Eur J Med Chem, 2024):
Activity calls are given as the source filed them. The calls are words filed in the database; no cut-off is given here.

Experiments:
[1] = test system: MDA-MB-231; test: Cytotoxicity against human MDA-MB-231 cells assessed as fold increase in inhibition of cell growth incubated for 96 hrs under hypoxic condition by MTT assay relative to 4-hydroxycoumarin; type: functional
[2] = test system: MDA-MB-231; test: Cytotoxicity against human MDA-MB-231 cells assessed as fold increase in inhibition of cell growth incubated for 96 hrs under hypoxic condition by MTT assay relative to doxorubicin; type: functional
[3] = test system: SiHa; test: Inhibition of hypoxia-induced HIF-1alpha accumulation in human SiHa cells at 0.3 to 10 uM incubated for 24 hrs under hypoxic condition by Western blotting analysis; type: functional, cell-based; settings: dose 0.3-10 µM
[4] = test system: SiHa; test: Inhibition of VEGFR in human SiHa cells assessed as decrease in intracellular VEGFR protein expression at 10 uM incubated for 24 hrs under hypoxic condition by immunofluorescence staining based analysis; type: cell-based
[5] = test system: HUVEC; test: Inhibition of cell invasion in human HUVEC cells at 1 to 10 uM incubated for 48 hrs under hypoxic condition by crystal violet staining based microscopic analysis relative to PAB; type: functional; settings: dose 1-10 µM
[6] = test system: HUVEC; test: Antiangiogenic activity against human HUVEC cells assessed as inhibition of blood vessel formation at 1 to 10 uM incubated for 4 hrs under hypoxic condition by fluorescence microscopic analysis; type: functional, cell-based; settings: dose 1-10 µM
[7] = test system: SiHa; test: Inhibition of hypoxia-induced HIF-1beta accumulation in human SiHa cells at 0.3 to 10 uM incubated for 24 hrs under hypoxic condition by Western blotting analysis; type: functional, cell-based; settings: dose 0.3-10 µM
[8] = test system: HUVEC; test: Inhibition of cell migration in human HUVEC cells at 1 uM incubated for 48 hrs under hypoxic condition by microscopic analysis relative to PAB; type: functional
[9] = test system: SiHa; test: Cytotoxicity against human SiHa cells assessed as inhibition of cell growth incubated for 24 hrs under normoxic condition by MTT assay; type: functional, cell-based
[10] = Inhibition of VEGFR mediated endocytosis in human SiHa cells incubated for 24 hrs under hypoxic condition by ELISA; type: cell-based
[11] = test system: SiHa; test: Inhibition of VEGFR in human SiHa cells incubated for 24 hrs under hypoxic condition by ELISA; type: cell-based
[12] = test system: HUVEC; test: Inhibition of cell migration in human HUVEC cells at 3 uM incubated for 48 hrs under hypoxic condition by microscopic analysis relative to PAB; type: functional
[13] = test system: HUVEC; test: Inhibition of cell migration in human HUVEC cells at 10 uM incubated for 48 hrs under hypoxic condition by microscopic analysis relative to PAB; type: functional
[14] = test system: HUVEC; test: Inhibition of cell migration in human HUVEC cells at 1 to 10 uM under hypoxic condition by microscopic analysis; type: functional, cell-based; settings: dose 1-10 µM, TDE = time-dependent effect
[15] = test system: HUVEC; test: Inhibition of cell migration in human HUVEC cells incubated upto 48 hrs under hypoxic condition by microscopic analysis; type: functional, cell-based
[16] = test system: SiHa; test: Inhibition of hypoxia-induced HIF-1alpha accumulation in human SiHa cells assessed as decrease in nuclear HIF-1alpha level at 10 uM incubated for 24 hrs under hypoxic condition by immunofluorescence staining based analysis; type: functional, cell-based
[17] = molecular target: Hypoxia-inducible factor 1-alpha (Homo sapiens) (UniProt Q16665); test: Inhibition of HIF-1alpha in human SiHa cells assessed as downregulation of HIF-1alpha protein expression incubated upto 60 mins under hypoxic condition by Western blotting analysis; type: cell-based
[18] = molecular target: Hypoxia-inducible factor 1-alpha (Homo sapiens) (UniProt Q16665); test: Inhibition of HIF-1alpha in human SiHa cells assessed as downregulation of HIF-1alpha protein expression incubated upto 60 mins under hypoxic condition in presence of CHX by Western blotting analysis; type: cell-based
[19] = molecular target: Hypoxia-inducible factor 1-alpha (Homo sapiens) (UniProt Q16665); test: Inhibition of HIF-1alpha in human SiHa cells assessed as downregulation of HIF-1alpha protein expression incubated upto 60 mins under hypoxic condition in presence of MG-132 by Western blotting analysis; type: cell-based
[20] = test system: SiHa; test: Inhibition of HIF-1beta in human SiHa cells assessed as downregulation of HIF-1beta protein expression incubated upto 60 mins under hypoxic condition in presence of MG-132 by Western blotting analysis; type: cell-based
[21] = Inhibition of PI3K/AKT/mTOR signalling pathway in human SiHa cells assessed as downregulation of PI3K protein expression at 0.3 to 10 uM incubated for 24 hrs under hypoxic condition by Western blotting analysis; type: cell-based; settings: dose 0.3-10 µM
[22] = Inhibition of PI3K/AKT/mTOR signalling pathway in human SiHa cells assessed as downregulation of AKT protein expression at 0.3 to 10 uM incubated for 24 hrs under hypoxic condition by Western blotting analysis; type: cell-based; settings: dose 0.3-10 µM
[23] = Inhibition of PI3K/AKT/mTOR signalling pathway in human SiHa cells assessed as downregulation of mTOR protein expression at 0.3 to 10 uM incubated for 24 hrs under hypoxic condition by Western blotting analysis; type: cell-based; settings: dose 0.3-10 µM
[24] = Inhibition of PI3K/AKT/mTOR signalling pathway in human SiHa cells assessed as downregulation of ERK1/2 phosphorylation at 10 uM incubated for 24 hrs under hypoxic condition by Western blotting analysis; type: cell-based
[25] = Inhibition of PI3K/AKT/mTOR signalling pathway in human SiHa cells assessed as downregulation of JNK phosphorylation at 10 uM incubated for 24 hrs under hypoxic condition by Western blotting analysis; type: cell-based
[26] = Inhibition of PI3K/AKT/mTOR signalling pathway in human SiHa cells assessed as downregulation of p38 phosphorylation at 10 uM incubated for 24 hrs under hypoxic condition by Western blotting analysis; type: cell-based
[27] = Inhibition of PI3K/AKT/mTOR signalling pathway in human SiHa cells assessed as downregulation of ERK1/2 protein expression at 10 uM incubated for 24 hrs under hypoxic condition by Western blotting analysis; type: cell-based
[28] = Inhibition of PI3K/AKT/mTOR signalling pathway in human SiHa cells assessed as downregulation of JNK protein expression at 10 uM incubated for 24 hrs under hypoxic condition by Western blotting analysis; type: cell-based
[29] = Inhibition of PI3K/AKT/mTOR signalling pathway in human SiHa cells assessed as downregulation of p38 protein expression at 10 uM incubated for 24 hrs under hypoxic condition by Western blotting analysis; type: cell-based
[30] = Toxicity in Balb/c mouse assessed as change in animal fur at 50 mg/kg,ip administration for 1 week; type: organism-based; settings: in vivo, 168 h, time 1 weeks
[31] = Toxicity in Balb/c mouse assessed as fatality at 50 mg/kg,ip administration for 1 week; type: organism-based; settings: in vivo, 168 h, time 1 weeks
[32] = Toxicity in Balb/c mouse xenografted with human SiHa cells assessed as reduction in body weight at 30 mg/kg,ip administration measured after 22 days; type: organism-based; settings: in vivo, 528 h, time 22 day
[33] = test system: SiHa; test: Antitumor activity against human SiHa cells xenografted in Balb/c mouse assessed as reduction in tumor growth at 30 mg/kg,ip administration measured after 22 days; type: functional, organism-based; settings: time 22.0 day
[34] = test system: SiHa; test: Antitumor activity against human SiHa cells xenografted in Balb/c mouse assessed as reduction in tumor volume at 30 mg/kg,ip administration measured after 22 days; type: functional, organism-based; settings: time 22.0 day
[35] = test system: SiHa; test: Antitumor activity against human SiHa cells xenografted in Balb/c mouse assessed as reduction in tumor weight at 30 mg/kg,ip administration measured after 22 days; type: functional, organism-based; settings: time 22.0 day
[36] = test system: SiHa; test: Antitumor activity against human SiHa cells xenografted in Balb/c mouse assessed as reduction in HIF-1alpha expression in tumor at 30 mg/kg,ip administration measured after 22 days by immunohistochemical staining based analysis; type: functional, organism-based; settings: time 22.0 day
[37] = test system: SiHa; test: Antitumor activity against human SiHa cells xenografted in Balb/c mouse assessed as reduction in VEGF expression in tumor at 30 mg/kg,ip administration measured after 22 days by immunohistochemical staining based analysis; type: functional, organism-based; settings: time 22.0 day
[38] = test system: MDA-MB-231; test: Cytotoxicity against human MDA-MB-231 cells assessed as inhibition of cell growth incubated for 96 hrs under hypoxic condition by MTT assay; type: functional, cell-based; settings: MDA-MB-231, 96 h

Sequence of Hypoxia-inducible factor 1-alpha (Homo sapiens) (Q16665 whole entry, looked up): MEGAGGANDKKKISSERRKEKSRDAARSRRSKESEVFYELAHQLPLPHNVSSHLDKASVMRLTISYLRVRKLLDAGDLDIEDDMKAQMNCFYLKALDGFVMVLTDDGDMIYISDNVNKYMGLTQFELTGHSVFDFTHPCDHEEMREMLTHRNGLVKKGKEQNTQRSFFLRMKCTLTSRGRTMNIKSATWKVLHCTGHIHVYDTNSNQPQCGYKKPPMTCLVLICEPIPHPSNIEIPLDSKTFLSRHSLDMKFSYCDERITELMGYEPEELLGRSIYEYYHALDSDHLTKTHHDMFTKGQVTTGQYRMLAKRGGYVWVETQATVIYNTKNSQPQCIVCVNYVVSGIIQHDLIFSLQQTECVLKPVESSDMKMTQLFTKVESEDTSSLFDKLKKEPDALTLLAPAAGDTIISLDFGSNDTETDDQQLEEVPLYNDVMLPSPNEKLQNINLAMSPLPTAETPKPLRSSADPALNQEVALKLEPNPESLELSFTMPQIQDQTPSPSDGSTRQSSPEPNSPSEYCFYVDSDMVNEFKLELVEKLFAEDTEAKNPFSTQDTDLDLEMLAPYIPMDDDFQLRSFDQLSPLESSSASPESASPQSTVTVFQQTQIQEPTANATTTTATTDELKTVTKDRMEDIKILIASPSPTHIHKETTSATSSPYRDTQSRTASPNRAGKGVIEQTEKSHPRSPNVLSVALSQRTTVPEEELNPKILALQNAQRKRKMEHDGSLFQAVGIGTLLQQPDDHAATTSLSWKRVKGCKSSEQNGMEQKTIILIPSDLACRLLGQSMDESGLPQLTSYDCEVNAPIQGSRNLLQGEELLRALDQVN

COc1ccc(NC(=O)c2ccc(-n3cc(COc4cc(=O)oc5ccccc45)nn3)cc2)cc1OC
fold change (FC) [1]: 5000
fold change (FC) [2]: 20

COC(=O)C1=CC[C@@]23CC[C@@H]([C@@](C)(/C=C/C=C(\C)C(=O)OCC(=O)NCc4cn(-c5ccc(Cl)cc5)nn4)OC2=O)[C@@]3(OC(C)=O)CC1
inhibition [3]: Active
inhibition [4]: Active
inhibition [5]: Active
Activity [6]: Active
inhibition [7]: Active
inhibition at 1 µM [8]: 35.6%
IC50 [9]: > 30 µM
IC50 [10]: 0.68 µM
inhibition [11]: Dose-Dependent Effect
inhibition at 3 µM [12]: 66.1%
inhibition at 10 µM [13]: 88.8%
inhibition [14]: Tde
inhibition [15]: Dose-Dependent Effect
inhibition [16]: Active
inhibition [17]: Active
inhibition [18]: inactive
inhibition [19]: Active
inhibition [20]: inactive
inhibition [21]: Active
inhibition [22]: Active
inhibition [23]: Active
inhibition [24]: Active
inhibition [25]: Active
inhibition [26]: Active
inhibition [27]: inactive
inhibition [28]: inactive
inhibition [29]: inactive
Activity [30]: Non-Toxic
Activity [31]: Non-Toxic
Activity [32]: Non-Toxic
Activity [33]: Active
Activity [34]: Active
Activity [35]: Active
Activity [36]: Active
Activity [37]: Active

O=c1cc(O)c2ccccc2o1 [4-HYDROXYCOUMARINS]
IC50 [38]: > 100 µM
